# “Also recorded” adds a separate entry of the source.
# Legend:
# [1] = test system: human colon carcinoma cells (HCT116); assay: Cell proliferation, crystal violet method; assay type: cell-based; conditions: for HCT116 cell growth vs vehicle control: 100 μM, FIG. 3a, 3b, 13a, 13b; for IC50: crystal violet, spectrophotometer, read-out: IC50 anti-proliferative effect, CRC (HCT116)
# Procedure: (§1) The compound according to the invention, and in particular the synthetic quercetin derivatives described and illustrated herein were investigated in vitro by using human tumour cells and assessing their impact on the tumour proliferative capacity, with regard to the tumours described above. In particular, the following human tumour cell lines were assessed experimentally: 1) HCT116, colon adenocarcinoma cells; 2) H1299, lung adenocarcinoma cells; 3) A375, melanoma cells, and 4) A431, squamous skin cell carcinoma; 5) 786-0, renal carcinoma cells; 6) PC3, prostate carcinoma cells; 7) BT549, mammary carcinoma cells; 8) CAL27, tongue carcinoma cells (belonging to the head-and-neck carcinomas); 9) HepG2, hepatocellular carcinoma cells; 10) PANC-1, pancreas carcinoma cells; 11) T24, bladder carcinoma cells; 12) OVCAR-3, ovarian carcinoma cells. In addition, a normal human cell line, WS1 (skin fibroblasts) was also treated with the novel synthetic compounds.
# (§2) Cell proliferation was quantified by the crystal violet method with a spectrophotometer. In short, after acquiring serial images (0, 24 and 48 hrs) with the EVOS XL Cell Imaging System microscope (Thermo Fisher Scientific), the cells imaged at 48 hrs were fixed with paraformaldehyde (4%) and stained with Crystal Violet (1%). Then, the specific absorbance (λ=590 nm) at 48 hrs was measured with a spectrophotometer (Infinite®200 PRO, Tecan). Data analysis was carried out by using ad-hoc Excel files for graphical representation and statistical processing (t-test). Moreover, the results obtained with Crystal Violet were confirmed by using another cell proliferation assessment method based on the real time cellular analyzer XCELLigence RTCA DP (ACEA Biosciences, Inc.). This tool allows cell growth to be monitored from electrical impedance-derived quantitative values (the so-called Cell Index) measured by tiny electrodes located at the base of the culture wells. Proliferation is monitored for several days (5-7) by setting a Cell Index per minute measure on the instrument. The data are analysed by processing various parameters calculated by the dedicated software, such as the cell duplication time, the slope and the Max Cell Index.
# (§3) Cell proliferation was quantitated spectrophotometrically by the crystal violet method.
# [2] = test system: human hepatocellular carcinoma cells (HepG2); assay: Cell proliferation, crystal violet method; assay type: cell-based; conditions: for HepG2 tumour growth vs vehicle control: 80 μM, FIG. 8a, 8b; for IC50: crystal violet, spectrophotometer, read-out: IC50 anti-proliferative effect, HCC - HepG2
# Procedure: as §1, §2, §3
# [3] = test system: human mammary carcinoma cells (BT549); assay: Cell proliferation, crystal violet method; assay type: cell-based; conditions: for BT549 cell growth vs vehicle control: 80 μM, FIG. 6a, 6b; for IC50: crystal violet, spectrophotometer, read-out: IC50 anti-proliferative effect, BRC - (BT549)
# Procedure: as §1, §2, §3
# [4] = test system: human melanoma cells (A375); assay: Cell proliferation, crystal violet method; assay type: cell-based; conditions: for growth of melanoma cells (A375) vs vehicle control: 60 μM, FIG. 1a, 1b; for IC50: crystal violet, spectrophotometer, read-out: IC50 anti-proliferative effect, Melanoma (A375)
# Procedure: as §1, §2, §3
# [5] = test system: human tongue carcinoma cells (Cal27); assay: Cell proliferation, crystal violet method; assay type: cell-based; conditions: for Cal27 tumour growth vs vehicle control: 80 μM, FIG. 7a, 7b; for IC50: crystal violet, spectrophotometer, read-out: IC50 anti-proliferative effect, HNC - (Cal27)
# Procedure: as §1, §2, §3
# [6] = test system: human bladder carcinoma cells (T24); assay: Cell proliferation, crystal violet method; assay type: cell-based; conditions: for T24 cell growth vs vehicle control: 80 μM, FIG. 10a, 10b; for IC50: crystal violet, spectrophotometer, read-out: IC50 anti-proliferative effect, BC (T24)
# Procedure: as §2, with “The compound according to the invention, and in particular the synthetic quercetin derivatives described and illustrated herein were investigated in vitro by using human tumour cells and assessing their impact on the tumour proliferative capacity, with regard to the tumours described above. In particular, the following human tumour cell lines were assessed experimentally: 1) HCT116, colon adenocarcinoma cells; 2) H1299, lung adenocarcinoma cells; 3) A375, melanoma cells, and 4) A431, squamous skin cell carcinoma; 5) 786-0, renal carcinoma cells; 6) PC3, prostate carcinoma cells; 7) BT549, mammary carcinoma cells; 8) CAL27, tongue carcinoma cells (belonging to the head-and-neck carcinomas); 9) HepG2, hepatocellular carcinoma cells; 10) PANC-1, pancreas carcinoma cells; 11) T24, bladder carcinoma cells; 12) OVCAR-3, ovarian carcinoma cells. In addition, a normal human cell line, WS1 (skin fibroblasts) was also treated with the novel synthetic compounds. Cell proliferation” for “Cell proliferation”, “Cell Index. […] Cell proliferation was quantitated spectrophotometrically by the crystal violet method.” for “Cell Index.”
# [7] = test system: human pancreatic carcinoma cells (PANC-1); assay: Cell proliferation, crystal violet method; assay type: cell-based; conditions: for PANC-1 cell growth vs vehicle control: 80 μM, FIG. 9a, 9b; for IC50: crystal violet, spectrophotometer, read-out: IC50 anti-proliferative effect, PCC (PANC-1)
# Procedure: as §2, with “The compound according to the invention, and in particular the synthetic quercetin derivatives described and illustrated herein were investigated in vitro by using human tumour cells and assessing their impact on the tumour proliferative capacity, with regard to the tumours described above. In particular, the following human tumour cell lines were assessed experimentally: 1) HCT116, colon adenocarcinoma cells; 2) H1299, lung adenocarcinoma cells; 3) A375, melanoma cells, and 4) A431, squamous skin cell carcinoma; 5) 786-0, renal carcinoma cells; 6) PC3, prostate carcinoma cells; 7) BT549, mammary carcinoma cells; 8) CAL27, tongue carcinoma cells (belonging to the head-and-neck carcinomas); 9) HepG2, hepatocellular carcinoma cells; 10) PANC-1, pancreas carcinoma cells; 11) T24, bladder carcinoma cells; 12) OVCAR-3, ovarian carcinoma cells. In addition, a normal human cell line, WS1 (skin fibroblasts) was also treated with the novel synthetic compounds. Cell proliferation” for “Cell proliferation”, “Cell Index. […] Cell proliferation was quantitated spectrophotometrically by the crystal violet method.” for “Cell Index.”
# [8] = test system: human renal carcinoma cells (786-0); assay: Cell proliferation, crystal violet method; assay type: cell-based; conditions: for 786-0 cell growth vs vehicle control: 80 μM, FIG. 4a, 4b; for IC50: crystal violet, spectrophotometer, read-out: IC50 anti-proliferative effect, RCC - (786-O)
# Procedure: as §2, with “The compound according to the invention, and in particular the synthetic quercetin derivatives described and illustrated herein were investigated in vitro by using human tumour cells and assessing their impact on the tumour proliferative capacity, with regard to the tumours described above. In particular, the following human tumour cell lines were assessed experimentally: 1) HCT116, colon adenocarcinoma cells; 2) H1299, lung adenocarcinoma cells; 3) A375, melanoma cells, and 4) A431, squamous skin cell carcinoma; 5) 786-0, renal carcinoma cells; 6) PC3, prostate carcinoma cells; 7) BT549, mammary carcinoma cells; 8) CAL27, tongue carcinoma cells (belonging to the head-and-neck carcinomas); 9) HepG2, hepatocellular carcinoma cells; 10) PANC-1, pancreas carcinoma cells; 11) T24, bladder carcinoma cells; 12) OVCAR-3, ovarian carcinoma cells. In addition, a normal human cell line, WS1 (skin fibroblasts) was also treated with the novel synthetic compounds. Cell proliferation” for “Cell proliferation”, “Cell Index. […] Cell proliferation was quantitated spectrophotometrically by the crystal violet method.” for “Cell Index.”
# [9] = test system: human prostate carcinoma cells (PC3); assay: Cell proliferation, crystal violet method; assay type: cell-based; conditions: for PC3 cell growth vs vehicle control: 80 μM, FIG. 5a, 5b; for IC50: crystal violet, spectrophotometer, read-out: IC50 anti-proliferative effect, PC - (PC3)
# Procedure: as §2, with “The compound according to the invention, and in particular the synthetic quercetin derivatives described and illustrated herein were investigated in vitro by using human tumour cells and assessing their impact on the tumour proliferative capacity, with regard to the tumours described above. In particular, the following human tumour cell lines were assessed experimentally: 1) HCT116, colon adenocarcinoma cells; 2) H1299, lung adenocarcinoma cells; 3) A375, melanoma cells, and 4) A431, squamous skin cell carcinoma; 5) 786-0, renal carcinoma cells; 6) PC3, prostate carcinoma cells; 7) BT549, mammary carcinoma cells; 8) CAL27, tongue carcinoma cells (belonging to the head-and-neck carcinomas); 9) HepG2, hepatocellular carcinoma cells; 10) PANC-1, pancreas carcinoma cells; 11) T24, bladder carcinoma cells; 12) OVCAR-3, ovarian carcinoma cells. In addition, a normal human cell line, WS1 (skin fibroblasts) was also treated with the novel synthetic compounds. Cell proliferation” for “Cell proliferation”, “Cell Index. […] Cell proliferation was quantitated spectrophotometrically by the crystal violet method.” for “Cell Index.”
# [10] = test system: human melanoma cells (A375); assay: Cell cycle progression, propidium iodide method, cytofluorimeter; assay type: cell-based; conditions: 24 hrs; at the respective anti-proliferative IC50s; FIG. 19
# Procedure: (§4) Progression through the tumour cell cycle was assessed by the propidium iodide method and quantification of the cell DNA content with a cytofluorimeter. Briefly, after treatment (in duplicate) with the test compounds (24 hrs), the tumour cells were washed (with PBS), detached with trypsin-EDTA and pelleted by centrifugation (125 g for 6 min). The cells were then fixed in ethanol (70%) and stored in the freezer (−20° C.) for 1-3 days. After further washing (PBS) and treatment with RNAse (50 ug/ml), the cells were contacted (on ice in the dark; 30 min) with propidium iodide (50 μg/ml). FL2 and FL3 cytofluorimeter readings analysed approximately 50,000 cells (1 μl/second) per sample. Statistical analysis and graphical representation were performed by using t-tests and preset Excel property files.
# [11] = test system: H1299, lung adenocarcinoma cells; assay: Cell proliferation, crystal violet method; assay type: cell-based, human; conditions: spectrophotometer, read-out: IC50 anti-proliferative effect, LC (H1299)
# Procedure: as §1, §2, §3
# [12] = test system: human colon carcinoma cells (HCT116); assay: Cell cycle progression, propidium iodide method, cytofluorimeter; assay type: cell-based; conditions: 24 hrs; at the respective anti-proliferative IC50s; FIG. 20
# Procedure: as §4
IC50 [1] [µM],IC50 [2] [µM],IC50 [3] [µM],IC50 [4] [µM],IC50 [5] [µM],IC50 [6] [µM],IC50 [7] [µM],IC50 [8] [µM],IC50 [9] [µM],IC50 [11] [µM],Substance,HCT116 cell growth vs vehicle control [1],HepG2 tumour growth vs vehicle control [2],BT549 cell growth vs vehicle control [3],growth of melanoma cells (A375) vs vehicle control [4],Cal27 tumour growth vs vehicle control [5],T24 cell growth vs vehicle control [6],PANC-1 cell growth vs vehicle control [7],786-0 cell growth vs vehicle control [8],PC3 cell growth vs vehicle control [9],halt of A375 tumour cells in S and/or G2 of the cell cycle [10],other results
28.8,106,46.5,16.4,19.7,50.5,69.4,32.6,56.9,50.5,"2-(3,4-dihydroxyphenyl)-5,7-dihydroxy-4-oxo-4H-chromen-3-yl palmitate [Compound 5]",significantly inhibit,significantly inhibit; also recorded: superior to that of quercetin,significantly inhibit,significantly inhibit,significantly inhibit; also recorded: superior to that of quercetin,significantly inhibit,significantly inhibit,significantly inhibit,significantly inhibit,significantly halt,
22.9,54.4,48.6,20.1,22.9,45.5,69.6,41.2,34.9,15.9,"2-(3,4-dihydroxyphenyl)-5,7-dihydroxy-4-oxo-4H-chromen-3-yl acetate [Compound 4]",significantly inhibit,significantly inhibit; also recorded: superior to that of quercetin,significantly inhibit,significantly inhibit,significantly inhibit,significantly inhibit,significantly inhibit,significantly inhibit,significantly inhibit,significantly halt,halt of HCT116 tumour cells in S of the cell cycle [12]: significantly halt

# Reference: patent US12059400B2, “Medical compound” (VERA SALUS RICERCA S.R.L., priority 2017, dated 2024)
